Experimental data as given in patent publication US20060148649A1, “Substituted n-aryl nitrogen heterocycles” (priority 2003, published 2006).

Tests used:
[1] = tested on: crop plants, such as wheat; experiment: Post-emergence test (crop plant tolerance); format: in vivo; details: some crop plants, e.g. wheat, rated after three weeks
[2] = log P determination by HPLC (EEC directive 79/831 Annex V.A8, reverse-phase C 18); details: for chromatographic logP: reverse-phase C18 HPLC column, pH 2.3; for logP: HPLC, reverse-phase C 18, 43° C., acidic range: 0.1% aqueous phosphoric acid/acetonitrile gradient (marked a))
[3] = tested on: crop plants, such as corn and sugar beet; experiment: Pre-emergence test (crop plant tolerance); format: in vivo; details: some crop plants, e.g. corn and sugar beet, rated after three weeks
weeds [4] = experiment: Post-emergence test (herbicidal activity); format: in vivo; details: test plants of 5-15 cm sprayed, rated after three weeks
weeds [5] = experiment: Pre-emergence test (herbicidal activity); format: in vivo; details: soil sprayed 24 hours after sowing, rated after three weeks

SMILES | tolerance by crop plants [1] | tolerance by crop plants [3] | logP [2] | further results
CCOC(=O)C1CCN(c2cc(-n3c(=O)cc(C(F)(F)F)[nH]c3=O)c(F)cc2C#N)CC1 | – | – | – | melting point: 124.5 °C
CCOC(=O)C1CCN(c2cc(-n3c(=O)cc(C(F)(F)F)n(C)c3=O)c(F)cc2C#N)CC1 [Example 2, 3-[4-cyano-5-(4-ethoxycarbonylpiperidin-1-yl)-2-fluorophenyl]-1-methyl-6-trifluoromethyl-1H-pyrimidine-2,4-dione] | tolerated well | tolerated well | – | chromatographic logP [2]: 3.23; activity against weeds (degree of damage vs untreated control) (weeds [4]): very strong activity; activity against weeds (degree of damage vs untreated control) (weeds [5]): very strong activity
Cn1c(C(F)(F)F)cc(=O)n(-c2cc(N3C(=O)CN(C4CC4)C3=O)c(C#N)cc2F)c1=O [Example 3, 3-[4-cyano-2-fluoro-5-(1-cyclopropyl-2,4-dioxoimidazolidin-3-yl)phenyl]-1-methyl-6-trifluoromethyl-1H-pyrimidine-2,4-dione] | tolerated well | tolerated well | – | chromatographic logP [2]: 2.25; activity against weeds (degree of damage vs untreated control) (weeds [4]): very strong activity; activity against weeds (degree of damage vs untreated control) (weeds [5]): very strong activity
Cc1ccc(C)n1-c1cc(-n2c(=O)cc(C(F)(F)F)n(C)c2=O)c(F)cc1C#N [Example 4] | tolerated well | tolerated well | – | –
Cn1c(C(F)(F)F)cc(=O)n(-c2cc(-n3cccc3)c(C#N)cc2F)c1=O [Example 5] | tolerated well | tolerated well | – | –
Cn1c(C(F)(F)F)cc(=O)n(-c2cc(-n3ccc(C=O)c3)c(C#N)cc2F)c1=O [Example 6] | tolerated well | tolerated well | m.p.: 174 °C logP = 2.25^a) | –
CCOC(=O)CCN1CC(=O)N(c2cc(-n3c(=O)cc(C(F)(F)F)n(C)c3=O)c(F)cc2C#N)C1=O [Example 8] | – | – | logP = 2.48^a) | –
Cn1c(C(F)(F)F)cc(=O)n(-c2cc(N3C(=O)C4CCCCN4C3=O)c(C#N)cc2F)c1=O (stereo not drawn) [Example 9] | tolerated well | tolerated well | logP = 2.42^a) | –
CC1OC(=O)N(c2cc(-n3c(=O)cc(C(F)(F)F)n(C)c3=O)c(F)cc2C#N)C1=O (stereo not drawn) [Example 10] | tolerated well | – | logP = 2.49^a) | –
Cn1c(C(F)(F)F)cc(=O)n(-c2cc(N3C(=O)CSC3=O)c(C#N)cc2F)c1=O [Example 11] | tolerated well | – | logP = 2.36^a) | activity against weeds (degree of damage vs untreated control) (weeds [4]): very strong activity
Cn1c(C(F)(F)F)cc(=O)n(-c2cc(N3C(=O)COC3=O)c(C#N)cc2F)c1=O [Example 12] | tolerated well | – | – | –
CCOC(=O)C1CCN(c2cc(-n3c(=O)cc(C(F)(F)F)n(N)c3=O)c(F)cc2C#N)CC1 [Example 16] | tolerated well | tolerated well | logP = 2.89^a) | activity against weeds (degree of damage vs untreated control) (weeds [4]): very strong activity; activity against weeds (degree of damage vs untreated control) (weeds [5]): very strong activity
N#Cc1cc(F)c(-n2c(=O)cc(C(F)(F)F)[nH]c2=O)cc1N1CCC(O)CC1 [Example 18] | – | – | logP = 1.62^a) | –
Cn1c(C(F)(F)F)cc(=O)n(-c2cc(N3CCC(O)CC3)c(C#N)cc2F)c1=O [Example 20] | tolerated well | tolerated well | logP = 3.97^a) | activity against weeds (degree of damage vs untreated control) (weeds [4]): very strong activity; activity against weeds (degree of damage vs untreated control) (weeds [5]): very strong activity
CCOC(=O)C1CCCN(c2cc(-n3c(=O)cc(C(F)(F)F)[nH]c3=O)c(F)cc2C#N)C1 (stereo not drawn) [Example 24] | tolerated well | tolerated well | logP = 3.31^a) | –
COC(=O)C1CCN(c2cc(-n3c(=O)cc(C(F)(F)F)n(C)c3=O)c(F)cc2C#N)CC1 [Example 28] | tolerated well | tolerated well | logP = 2.88^a) | activity against weeds (degree of damage vs untreated control) (weeds [4]): very strong activity; activity against weeds (degree of damage vs untreated control) (weeds [5]): very strong activity
Cn1c(C(F)(F)F)cc(=O)n(-c2cc(N3CCC(O)C3)c(C#N)cc2F)c1=O (stereo not drawn) [Example 31] | tolerated well | tolerated well | logP = 2.02^a) | activity against weeds (degree of damage vs untreated control) (weeds [4]): very strong activity; activity against weeds (degree of damage vs untreated control) (weeds [5]): very strong activity

SMILES | tolerance by crop plants [1] | tolerance by crop plants [3] | logP [2] | further results
Cn1c(C(F)(F)F)cc(=O)n(-c2cc(N3CCC4(CC3)OCCO4)c(C#N)cc2F)c1=O [Example 34] | – | – | logP = 2.67^a) | –
N#Cc1cc(F)c(-n2c(=O)cc(C(F)(F)F)n(N)c2=O)cc1N1CCC2(CC1)OCCO2 [Example 35] | – | – | logP = 2.37^a) | –
Cn1c(C(F)(F)F)cc(=O)n(-c2cc(N3CCC(C(F)(F)F)CC3)c(C#N)cc2F)c1=O [Example 37] | – | – | logP = 3.52^a) | –
N#Cc1cc(F)c(-n2c(=O)cc(C(F)(F)F)[nH]c2=O)cc1N1CCC(C#N)CC1 [Example 38] | – | – | logP = 2.08^a) | –
Cn1c(C(F)(F)F)cc(=O)n(-c2cc(N3CCC4(CC3)OCCCO4)c(C#N)cc2F)c1=O [Example 40] | – | – | logP = 2.69^a) | –
N#Cc1cc(F)c(-n2c(=O)cc(C(F)(F)F)n(N)c2=O)cc1N1CCC2(CC1)OCCCO2 [Example 41] | – | – | logP = 2.40^a) | –
N#Cc1cc(F)c(-n2c(=O)cc(C(F)(F)F)[nH]c2=O)cc1N1CCC(C(F)(F)F)CC1 [Example 42] | – | – | logP = 2.96^a) | –
Cn1c(C(F)(F)F)nn(-c2cc(N3CCC4(CC3)OCCO4)c(C#N)cc2F)c1=O [Example 50] | – | – | logP = 2.81^a) | –
CCOC(=O)C1CCN(c2cc(N3C(=O)C4=C(CCCC4)C3=O)c(F)cc2C#N)CC1 [Example 59] | – | – | logP = 3.77^a) | –
CCOC(=O)C1CCN(c2cc(N3C(=O)C(C)=C(C)C3=O)c(F)cc2C#N)CC1 [Example 64] | – | – | logP = 3.37^a) | –
CCOC(=O)C1CCCN(c2cc(-n3c(=O)cc(C(F)(F)F)n(C)c3=O)c(F)cc2Cl)C1 (stereo not drawn) [Example 68] | – | – | logP = 3.87^a) | –
CCOC(=O)C1CCCCN1c1cc(-n2c(=O)cc(C(F)(F)F)n(C)c2=O)c(F)cc1Cl (stereo not drawn) [Example 69] | – | – | logP = 4.07^a) | –
CCOC(=O)C1CCCN(c2cc(-n3c(=O)cc(C(F)(F)F)n(C)c3=O)c(F)cc2Br)C1 (stereo not drawn) [Example 73] | – | – | logP = 3.99^a) | –
CCOC(=O)C1CCCCN1c1cc(-n2c(=O)cc(C(F)(F)F)n(C)c2=O)c(F)cc1Br (stereo not drawn) [Example 74] | – | – | logP = 4.18^a) | –
CCOC(=O)C1CCCN1c1cc(-n2c(=O)cc(C(F)(F)F)n(C)c2=O)c(F)cc1Br (stereo not drawn) [Example 82] | – | – | logP = 3.61^a) | –
CCOC(=O)C1CCCN1c1cc(-n2c(=O)cc(C(F)(F)F)n(C)c2=O)c(F)cc1Cl (stereo not drawn) [Example 83] | – | – | logP = 3.49^a) | –
CCOC(=O)C1CCCN1c1cc(-n2c(=O)cc(C(F)(F)F)n(C)c2=O)c(F)cc1C#N (stereo not drawn) [Example 84] | – | – | logP = 3.01^a) | –
